One may read the EC50 as the concentration that produces a half-maximal response. As usually defined, the CC50 is the concentration that lowers cell viability or growth by half. The term IC50 denotes the point on the concentration scale where inhibition reaches its midpoint. Usually AC50 stands for the midpoint of the concentration-response curve, whichever way the signal moves.

In one experiment the test system is Streptococcus. Description: Group A Streptococcus viability loss, dose response, counter-screen for streptokinase expression inhibitor project, luminescence, BacTiterGlo (AID 1915).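 Note: potency for reduction of bacterial viability or growth.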 It is filed as functional, organism-based. In general terms: Counterscreens check selectivity or assay interference.
Experiment [1] is described as follows: THP-1 cell cytotoxicity, dose response, cytotoxicity control for non-replicating M. tuberculosis project (AID 489025). In kind it is functional.
Experiment [2] in a line: Vero E6 cell cytotoxicity, dose response, cytotoxicity control for non-replicating M. tuberculosis project, secondary assay (AID 492998). It is filed as functional, VeroE6. Conditions: Vero C1008.
The next experiment in a line: cells. It is filed as functional.
In the next experiment the target is T1, Protein RecA (Mycobacterium tuberculosis, UniProt P9WHJ3).
T1 sequence (P9WHJ3 whole entry): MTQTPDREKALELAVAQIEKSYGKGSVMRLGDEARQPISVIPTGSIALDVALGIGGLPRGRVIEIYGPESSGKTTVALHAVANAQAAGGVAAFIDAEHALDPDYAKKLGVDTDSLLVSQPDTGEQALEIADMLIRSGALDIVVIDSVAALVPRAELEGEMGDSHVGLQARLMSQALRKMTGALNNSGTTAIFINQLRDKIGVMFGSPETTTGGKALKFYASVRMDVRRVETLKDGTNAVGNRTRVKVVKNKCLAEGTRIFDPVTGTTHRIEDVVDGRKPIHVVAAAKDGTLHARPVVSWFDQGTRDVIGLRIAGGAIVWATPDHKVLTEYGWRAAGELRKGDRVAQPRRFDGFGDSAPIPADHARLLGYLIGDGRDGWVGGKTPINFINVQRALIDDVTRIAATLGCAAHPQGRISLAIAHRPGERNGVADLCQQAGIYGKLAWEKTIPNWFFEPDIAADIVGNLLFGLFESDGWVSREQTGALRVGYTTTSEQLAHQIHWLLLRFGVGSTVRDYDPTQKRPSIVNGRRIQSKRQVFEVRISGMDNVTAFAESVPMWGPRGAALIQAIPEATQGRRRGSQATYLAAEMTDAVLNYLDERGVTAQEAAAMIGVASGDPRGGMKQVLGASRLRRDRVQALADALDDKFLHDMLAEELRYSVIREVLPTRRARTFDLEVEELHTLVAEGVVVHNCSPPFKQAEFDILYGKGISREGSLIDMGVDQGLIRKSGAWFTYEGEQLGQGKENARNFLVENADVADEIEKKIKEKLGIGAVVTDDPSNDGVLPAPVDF
Description: Fluorescence Cell-Free Homogeneous Dose Retest to Identify Inhibitors of RecA-Intein Splicing Activity. [Related pubchem assays (depositor defined):AID2097, AID2223, AID489010, AID492950]. In kind it is functional.

The target of a further experiment is Genome polyprotein (dengue virus type 2, UniProt P29990). Description: Dengue-2 NS5 methyltransferase inhibitors, primary screen, biochemical, confirmation dose response (AID 588689). It is filed as functional.
Experiment [3] concerns the target T2, Apoptotic protease-activating factor 1 (Homo sapiens, UniProt O14727).
T2 sequence (O14727 whole entry): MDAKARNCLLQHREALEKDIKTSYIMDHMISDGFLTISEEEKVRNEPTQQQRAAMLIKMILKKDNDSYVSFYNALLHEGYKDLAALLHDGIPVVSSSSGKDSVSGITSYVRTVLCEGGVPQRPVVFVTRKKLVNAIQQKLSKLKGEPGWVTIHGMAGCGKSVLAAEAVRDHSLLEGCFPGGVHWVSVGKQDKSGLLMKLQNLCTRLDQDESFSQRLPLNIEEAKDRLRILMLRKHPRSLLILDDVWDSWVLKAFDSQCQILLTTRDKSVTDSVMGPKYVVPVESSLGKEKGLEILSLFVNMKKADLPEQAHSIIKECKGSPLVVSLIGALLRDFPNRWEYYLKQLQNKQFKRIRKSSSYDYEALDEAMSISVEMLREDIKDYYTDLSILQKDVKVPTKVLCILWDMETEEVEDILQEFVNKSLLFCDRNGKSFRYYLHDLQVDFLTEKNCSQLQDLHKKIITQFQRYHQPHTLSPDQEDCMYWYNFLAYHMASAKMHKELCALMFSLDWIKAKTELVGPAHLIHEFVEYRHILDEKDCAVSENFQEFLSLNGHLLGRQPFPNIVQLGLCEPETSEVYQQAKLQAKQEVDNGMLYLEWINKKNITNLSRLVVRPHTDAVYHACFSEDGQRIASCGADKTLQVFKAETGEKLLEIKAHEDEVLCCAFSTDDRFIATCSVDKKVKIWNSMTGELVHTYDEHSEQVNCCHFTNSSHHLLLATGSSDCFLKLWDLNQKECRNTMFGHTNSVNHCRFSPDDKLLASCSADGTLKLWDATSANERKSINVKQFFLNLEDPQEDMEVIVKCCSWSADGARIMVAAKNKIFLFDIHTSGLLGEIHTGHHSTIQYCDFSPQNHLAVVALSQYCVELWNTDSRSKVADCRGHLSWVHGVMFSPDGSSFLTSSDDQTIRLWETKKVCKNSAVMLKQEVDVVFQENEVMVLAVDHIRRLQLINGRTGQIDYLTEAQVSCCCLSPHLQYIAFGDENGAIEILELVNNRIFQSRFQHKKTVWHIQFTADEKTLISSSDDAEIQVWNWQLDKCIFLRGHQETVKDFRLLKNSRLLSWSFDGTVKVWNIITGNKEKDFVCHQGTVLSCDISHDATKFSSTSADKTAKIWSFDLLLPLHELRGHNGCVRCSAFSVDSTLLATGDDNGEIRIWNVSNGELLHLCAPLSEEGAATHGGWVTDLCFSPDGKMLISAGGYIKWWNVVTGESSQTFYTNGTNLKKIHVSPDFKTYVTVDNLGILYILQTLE
In kind it is functional.

Experiment [4] concerns the target T3, Neuropeptide Y receptor type 2 (Homo sapiens, UniProt P49146).
T3 sequence (P49146 whole entry): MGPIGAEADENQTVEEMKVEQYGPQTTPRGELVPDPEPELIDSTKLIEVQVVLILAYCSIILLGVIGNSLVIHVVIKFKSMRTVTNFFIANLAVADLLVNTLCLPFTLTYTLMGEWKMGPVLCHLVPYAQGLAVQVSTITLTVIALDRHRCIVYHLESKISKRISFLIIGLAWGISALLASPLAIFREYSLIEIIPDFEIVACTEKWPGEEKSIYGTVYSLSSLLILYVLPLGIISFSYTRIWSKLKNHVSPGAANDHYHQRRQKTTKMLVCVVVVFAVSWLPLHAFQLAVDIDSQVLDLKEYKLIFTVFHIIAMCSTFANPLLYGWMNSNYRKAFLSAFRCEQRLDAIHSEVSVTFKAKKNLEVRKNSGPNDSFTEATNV
Description: Fluorescence-based cell-based high-throughput dose response assay for agonists of NPY-Y2. [Related pubchem assays: 1703 (Screening assay (CNGC inhibitors).), 1359 (Screening assay (NPY-Y2 potentiators or agonists).), 1304 (Screening assay (NPY-Y1 potentiators or agonists).), 1710 (Screening assay (NPY-Y2 agonists).), 1791 (Summary AID.)]. In kind it is functional.

Experiment [5] can be described thus: Shn3 3'UTR reporter inhibitors, dose response, cell-based, Clone20 osteoblasts, firefly luciferase, cherry-picked (AID 624132).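 Note: firefly luciferase luminescence from reporter carrying the Shn3 3'UTR in osteoblasts.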 In kind it is functional.
A short description of experiment [6]: control 3'UTR Renilla luciferase suppression, dose response, counter-screen for Shn3 inhibitor project, cell-based, Clone20-Shn3RL, cherry-picked (AID 624133). It is filed as functional.

Active and inactive are the calls of the source. Bounds are passed on as bounds.

Chain of Genome polyprotein (P29990 2492-3391 limits assumed): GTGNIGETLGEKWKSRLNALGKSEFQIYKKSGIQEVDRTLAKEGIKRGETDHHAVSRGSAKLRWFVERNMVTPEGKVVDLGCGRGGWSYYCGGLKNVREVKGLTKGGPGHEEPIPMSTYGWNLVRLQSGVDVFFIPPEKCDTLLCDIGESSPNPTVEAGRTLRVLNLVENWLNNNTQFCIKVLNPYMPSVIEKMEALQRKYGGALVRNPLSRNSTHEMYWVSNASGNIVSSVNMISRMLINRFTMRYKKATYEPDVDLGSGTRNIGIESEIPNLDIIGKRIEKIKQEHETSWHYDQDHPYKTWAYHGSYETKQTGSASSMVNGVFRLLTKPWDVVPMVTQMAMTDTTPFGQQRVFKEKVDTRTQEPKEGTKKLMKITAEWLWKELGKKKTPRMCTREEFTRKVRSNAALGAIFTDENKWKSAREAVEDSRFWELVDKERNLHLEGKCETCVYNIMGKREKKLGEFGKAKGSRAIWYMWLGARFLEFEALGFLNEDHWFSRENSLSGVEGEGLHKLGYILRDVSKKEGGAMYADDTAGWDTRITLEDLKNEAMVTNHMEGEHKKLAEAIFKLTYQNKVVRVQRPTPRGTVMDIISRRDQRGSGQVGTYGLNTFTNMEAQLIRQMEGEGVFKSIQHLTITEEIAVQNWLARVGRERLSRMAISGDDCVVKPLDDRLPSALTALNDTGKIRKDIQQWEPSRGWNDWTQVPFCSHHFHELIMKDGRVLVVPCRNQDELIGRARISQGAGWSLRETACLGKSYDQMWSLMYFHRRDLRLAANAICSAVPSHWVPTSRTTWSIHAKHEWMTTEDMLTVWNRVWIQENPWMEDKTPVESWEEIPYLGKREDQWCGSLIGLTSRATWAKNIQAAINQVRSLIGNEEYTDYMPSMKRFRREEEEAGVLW

Turning to `O=C(CNc1cccc2ccccc12)N/N=C/c1ccc([N+](=O)[O-])o1`, the EC50 with Streptococcus was 6.2 µM (active). Besides, the CC50 is 16.8 µM (active) in experiment [1] and > 20 µM (active) in experiment [2]. In addition, the IC50 in the experiment “cells” was 3.24 µM (active).

On to `O=C(O)CSc1cc(NS(=O)(=O)c2ccc(Br)cc2)c2ccccc2c1O`, for which, at Protein RecA, the EC50 was 0.244 µM (active). Also, the IC50 on Genome polyprotein is 7.66 µM (active).

As for `O=C1NC(=S)N/C1=C/c1cc2c(cc1[N+](=O)[O-])OCO2`, in experiment [3], the IC50 was 12.9 µM (active).

`O=C(CC(O)(C(F)(F)F)C(F)(F)F)Nc1ccc(Cl)c(Cl)c1`: the EC50 in experiment [4] is recorded as 21.7 µM (not active). For the same compound, the AC50 is 4.97 µM (active) in experiment [5] and 5.67 µM (active) in experiment [6].

For the compound `Cc1ccc(NC(=O)C2=C(c3ccccc3)S(=O)(=O)CCS2(=O)=O)cc1`, the CC50 in [1] was 19.4 µM (active). Also, the IC50 in “cells” was 38.3 µM (active); at Genome polyprotein, > 100 µM (active). The EC50 on Protein RecA was 1.01 µM (active). Further, the AC50 in [5] was 0.558 µM (active); in [6], 4.49 µM (active).

These data come from ChEMBL document CHEMBL1201862, “PubChem BioAssay data set” (2004).
